Legend:
TNF-α = TNF-α secretion by PMA-treated human keratinocytes (ELISA); assay type: cell-based; settings: 0.01% test compound; PMA 10 ng/ml, 6 hours; % change in secreted TNF-α, negative = reduction; Table 2
Text: Tumor necrosis factor alpha (TNF-α) assay: The prototype ligand of the TNF superfamily, TNF-α, is a pleiotropic cytokine that plays a central role in inflammation. Increase in its expression is associated with an up regulation in pro-inflammatory activity. This bioassay analyzes the effect of compounds on the production of TNF-α by human epidermal keratinocytes. The endpoint of this assay is a spectrophotometric measurement that reflects the presence of TNF-α and cellular viability. The assay employs the quantitative sandwich enzyme immunoassay technique whereby a monoclonal antibody specific for TNF-α has been pre-coated onto a microplate. Standards and samples are pipetted into the wells and any TNF-α present is bound by the immobilized antibody. After washing away any unbound substances, an enzyme-linked polyclonal antibody specific for TNF-α is added to the wells. Following a wash to remove any unbound antibody-enzyme reagent, a substrate solution is added to the wells and color develops in proportion to the amount of TNF-α bound in the initial step using a microplate reader for detection at 450 nm. The color development is stopped and the intensity of the color is measured.
Subconfluent normal human adult keratinocytes (Cascade Biologics) cultivated in EpiLife standard growth medium (Cascade Biologics) at 37° C. in 5% CO2, were treated with PMA (10 ng/ml, Sigma Chemical, #P1585-1MG) and test compounds for 6 hours. […] Following incubation, cell culture medium was collected and the amount of TNF-a secretion quantified using a sanwhich enzyme linked immuno-sorbant assay (ELISA) from R&D Systems ([…]). Following all manufacturer instructions, medium from treated cells was incubated with antibodies directed against human TNF-α which were bound to microtiter plates. The amount of TNF-α protein was quantified by comparison of optical density units to standard concentrations of purified TNF-α protein. Values are calculated as % change in the amount of TNF-α protein secreted between control and treated samples. […]

15-lipoxygenase = molecular target: T1, 15-lipoxygenase (Glycine max, UniProt P08170); assay: Lipoxygenase (LO) inhibition assay; assay type: biochemical; settings: 0.1% test compound; negative = inhibition vs non-treated control; Table 2
T1 construct: purchased Cayman Chemical 760700
T1 sequence (P08170 1-839): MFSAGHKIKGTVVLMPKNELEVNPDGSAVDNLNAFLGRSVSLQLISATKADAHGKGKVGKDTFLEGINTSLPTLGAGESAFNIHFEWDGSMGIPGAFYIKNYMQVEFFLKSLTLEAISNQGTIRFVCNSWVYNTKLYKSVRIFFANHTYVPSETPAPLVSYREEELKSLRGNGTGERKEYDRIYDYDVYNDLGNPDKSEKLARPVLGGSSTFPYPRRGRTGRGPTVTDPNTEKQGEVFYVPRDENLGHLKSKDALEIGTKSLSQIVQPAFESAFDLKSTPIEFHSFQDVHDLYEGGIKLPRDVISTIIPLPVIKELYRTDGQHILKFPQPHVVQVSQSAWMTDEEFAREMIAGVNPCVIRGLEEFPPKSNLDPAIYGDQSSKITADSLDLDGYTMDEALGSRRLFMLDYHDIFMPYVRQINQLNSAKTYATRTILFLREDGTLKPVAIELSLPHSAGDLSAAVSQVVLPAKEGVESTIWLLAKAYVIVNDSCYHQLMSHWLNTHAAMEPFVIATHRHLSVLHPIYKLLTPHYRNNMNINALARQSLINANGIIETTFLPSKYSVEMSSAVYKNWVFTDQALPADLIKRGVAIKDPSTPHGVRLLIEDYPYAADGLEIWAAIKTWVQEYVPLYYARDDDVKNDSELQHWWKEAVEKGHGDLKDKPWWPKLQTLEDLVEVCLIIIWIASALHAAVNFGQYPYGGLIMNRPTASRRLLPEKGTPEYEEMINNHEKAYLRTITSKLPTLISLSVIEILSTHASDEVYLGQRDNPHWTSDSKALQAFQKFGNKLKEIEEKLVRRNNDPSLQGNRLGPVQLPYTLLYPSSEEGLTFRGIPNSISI
Procedure: Lipoxygenase (LO) assay: An in vitro lipoxygenase (LO) inhibition assay. LOs are non-heme iron-containing dioxygenases that catalyze the addition of molecular oxygen to fatty acids. Linoleate and arachidonate are the main substrates for LOs in plants and animals. […] This assay provides an accurate and convenient method for screening lipoxygenase inhibitors by measuring the hydroperoxides generated from the incubation of a lipoxygenase (5-, 12-, or 15-LO) with arachidonic acid.
Following incubation, arachidonic acid was added to initiate the reaction and mixtures incubated for an additional 10 min at room temperature. Colorimetric substrate was added to terminate catalysis and color progression was evaluated by fluorescence plate reading at 490 nm. The percent inhibition of lipoxyganse activity was calculated compared to non-treated controls to determine the ability of test compounds to inhibit the activity of purified enzyme.

Row | Compound | TNF-α Inhibition (0.01%) (TNF-α) | LO Inhibition (0.1%) (15-lipoxygenase)
1 | CCCCCCCCC(C)C=O (stereo not shown) [Aldehyde C-11 MOA, 2-methyldecanal] | −38.68% | 
2 | CCCCCC/C=C/C(=O)OC [Neofolione, methyl non-2-enoate] | −53.90% | −27.46%
3 | 3-(4-ethylphenyl)-2,2-dimethylpropanal and 3-(2-ethylphenyl)-2,2-dimethylpropanal [Floralozone] | −33.20% | 
